Measurements published in the supplement of paper PMC10307832.

Assays:
Assay in all cases: relative viability (nuclei count vs DMSO), 5 days (fraction); higher = more cells survive
Elesclomol + Trametinib = compound: CN(NC(=O)CC(=O)NN(C)C(=S)c1ccccc1)C(=S)c1ccccc1 [Elesclomol] + CC(=O)Nc1cccc(-n2c(=O)n(C3CC3)c(=O)c3c(Nc4ccc(I)cc4F)n(C)c(=O)c(C)c32)c1 [Trametinib] (partner 0.02 µM)
In short: (§1)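 Relative viability equals treated-well nuclei counts divided by vehicle-well nuclei counts. Counts came from 4× images of lung cancer cell lines grown in 1536-well plates for 5 days after pin-tool dosing on the day after seeding. Dosing used one drug alone or a fixed anchor-drug dose plus five library-drug doses (not always all listed) in √10 steps, and values are medians of duplicate plates.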

Elesclomol + Crizotinib = compound: CN(NC(=O)CC(=O)NN(C)C(=S)c1ccccc1)C(=S)c1ccccc1 [Elesclomol] + C[C@@H](Oc1cc(-c2cnn(C3CCNCC3)c2)cnc1N)c1c(Cl)ccc(F)c1Cl [Crizotinib] (partner 1 µM)
In short: as §1

Elesclomol + Linsitinib = compound: CN(NC(=O)CC(=O)NN(C)C(=S)c1ccccc1)C(=S)c1ccccc1 [Elesclomol] + C[C@]1(O)C[C@@H](c2nc(-c3ccc4ccc(-c5ccccc5)nc4c3)c3c(N)nccn32)C1 [Linsitinib] (partner 1 µM)
In short: as §1

Elesclomol + Pemetrexed = compound: CN(NC(=O)CC(=O)NN(C)C(=S)c1ccccc1)C(=S)c1ccccc1 [Elesclomol] + Nc1nc2[nH]cc(CCc3ccc(C(=O)N[C@@H](CCC(=O)O)C(=O)O)cc3)c2c(=O)[nH]1 [Pemetrexed] (partner 0.2 µM)
In short: as §1

Elesclomol + Olaparib = compound: CN(NC(=O)CC(=O)NN(C)C(=S)c1ccccc1)C(=S)c1ccccc1 [Elesclomol] + O=C(c1cc(Cc2n[nH]c(=O)c3ccccc23)ccc1F)N1CCN(C(=O)C2CC2)CC1 [Olaparib] (partner 8 µM)
In short: as §1

Row | Cell Line | relative viability (Elesclomol + Trametinib; first compound 0.003162 µM) | relative viability (Elesclomol + Trametinib; first compound 0.01 µM) | relative viability (Elesclomol + Trametinib; first compound 0.03162 µM) | relative viability (Elesclomol + Trametinib; first compound 0.1 µM) | relative viability (Elesclomol + Crizotinib; first compound 0.003162 µM) | relative viability (Elesclomol + Crizotinib; first compound 0.01 µM) | relative viability (Elesclomol + Crizotinib; first compound 0.03162 µM) | relative viability (Elesclomol + Crizotinib; first compound 0.1 µM) | relative viability (Elesclomol + Linsitinib; first compound 0.003162 µM) | relative viability (Elesclomol + Linsitinib; first compound 0.01 µM) | relative viability (Elesclomol + Linsitinib; first compound 0.03162 µM) | relative viability (Elesclomol + Linsitinib; first compound 0.1 µM) | relative viability (Elesclomol + Pemetrexed; first compound 0.003162 µM) | relative viability (Elesclomol + Pemetrexed; first compound 0.01 µM) | relative viability (Elesclomol + Pemetrexed; first compound 0.03162 µM) | relative viability (Elesclomol + Pemetrexed; first compound 0.1 µM) | relative viability (Elesclomol + Olaparib; first compound 0.003162 µM) | relative viability (Elesclomol + Olaparib; first compound 0.01 µM) | relative viability (Elesclomol + Olaparib; first compound 0.03162 µM) | relative viability (Elesclomol + Olaparib; first compound 0.1 µM)
1 | PC-14 | 0.206 | 0.0608 | 0.0204 | 0.0164 | 0.918 | 0.526 | 0.203 | 0.0548 | 0.98 | 0.85 | 0.0931 | 0.0455 | 0.14 | 0.0457 | 0.0214 | 0.0198 | 0.287 | 0.0846 | 0.0176 | 0.0205
2 | RERF-LC-KJ | 0.753 | 0.536 | 0.572 | 0.28 | 0.832 | 0.473 | 0.373 | 0.336 | 0.897 | 0.752 | 0.412 | 0.322 | 0.412 | 0.369 | 0.332 | 0.268 | 0.613 | 0.473 | 0.326 | 0.323
3 | SK-LU-1 | 0.517 | 0.316 | 0.287 | 0.338 | 0.904 | 0.677 | 0.362 | 0.141 | 1.11 | 0.835 | 0.405 | 0.12 | 1.01 | 0.889 | 0.625 | 0.521 | 0.468 | 0.373 | 0.378 | 0.249
4 | SK-MES-1 | 0.584 | 0.635 | 0.501 | 0.415 | 1.06 | 0.887 | 0.964 | 0.625 | 1.04 | 0.814 | 0.992 | 0.62 | 0.982 | 0.597 | 0.524 | 0.415 | 0.713 | 0.656 | 0.339 | 0.231
5 | SW 1573 | 0.192 | 0.115 | 0.0701 | 0.0281 | 0.806 | 0.344 | 0.147 | 0.128 | 0.706 | 0.224 | 0.116 | 0.102 | 0.464 | 0.158 | 0.115 | 0.0205 | 0.201 | 0.146 | 0.0695 | 0.0085
6 | UMC-11 | 0.703 | 0.653 | 0.407 | 0.369 | 0.649 | 0.445 | 0.343 | 0.183 | 1.02 | 1.05 | 0.672 | 0.615 | 0.806 | 0.655 | 0.478 | 0.336 | 0.54 | 0.338 | 0.279 | 0.266
